The numbers were not newly measured in patent US11872245B2, “Antiseptic polymer and synthesis thereof” (TRIMPH IP PTY LIMITED, priority 2015, dated 2024), which cites them from elsewhere.

The target in one data set is V3 (Homo sapiens, UniProt P05106+P06756).
For another data set, the target named is IIb3 (Homo sapiens, UniProt P05106+P08514).
Chain of IIb3 (P08514 32-1039): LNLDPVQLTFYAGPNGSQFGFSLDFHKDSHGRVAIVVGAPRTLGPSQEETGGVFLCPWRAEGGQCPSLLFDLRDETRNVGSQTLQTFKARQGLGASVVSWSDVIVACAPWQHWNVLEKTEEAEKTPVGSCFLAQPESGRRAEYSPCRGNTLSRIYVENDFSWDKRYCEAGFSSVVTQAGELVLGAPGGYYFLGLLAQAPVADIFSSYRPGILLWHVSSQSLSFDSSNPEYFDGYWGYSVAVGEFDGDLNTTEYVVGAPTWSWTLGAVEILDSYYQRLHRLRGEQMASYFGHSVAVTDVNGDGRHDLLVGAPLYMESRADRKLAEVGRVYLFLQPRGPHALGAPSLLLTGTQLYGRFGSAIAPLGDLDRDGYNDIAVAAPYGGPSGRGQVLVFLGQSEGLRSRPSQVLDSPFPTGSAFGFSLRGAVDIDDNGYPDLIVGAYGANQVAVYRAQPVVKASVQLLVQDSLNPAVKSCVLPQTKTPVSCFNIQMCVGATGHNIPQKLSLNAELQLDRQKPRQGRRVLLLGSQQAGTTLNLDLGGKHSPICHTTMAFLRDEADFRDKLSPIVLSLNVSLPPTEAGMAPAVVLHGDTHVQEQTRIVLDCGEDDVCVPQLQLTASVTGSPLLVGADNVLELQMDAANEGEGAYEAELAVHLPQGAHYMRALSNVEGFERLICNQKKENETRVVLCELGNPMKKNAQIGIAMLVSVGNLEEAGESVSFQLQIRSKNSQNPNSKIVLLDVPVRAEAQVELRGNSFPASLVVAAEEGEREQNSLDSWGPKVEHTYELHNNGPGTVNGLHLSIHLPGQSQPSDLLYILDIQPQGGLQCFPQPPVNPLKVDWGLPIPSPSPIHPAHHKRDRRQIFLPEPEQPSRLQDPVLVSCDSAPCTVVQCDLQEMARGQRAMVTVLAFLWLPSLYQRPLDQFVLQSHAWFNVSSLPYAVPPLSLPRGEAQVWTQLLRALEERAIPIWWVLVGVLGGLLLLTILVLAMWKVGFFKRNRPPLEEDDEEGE
Chain of IIb3 (P05106 27-788): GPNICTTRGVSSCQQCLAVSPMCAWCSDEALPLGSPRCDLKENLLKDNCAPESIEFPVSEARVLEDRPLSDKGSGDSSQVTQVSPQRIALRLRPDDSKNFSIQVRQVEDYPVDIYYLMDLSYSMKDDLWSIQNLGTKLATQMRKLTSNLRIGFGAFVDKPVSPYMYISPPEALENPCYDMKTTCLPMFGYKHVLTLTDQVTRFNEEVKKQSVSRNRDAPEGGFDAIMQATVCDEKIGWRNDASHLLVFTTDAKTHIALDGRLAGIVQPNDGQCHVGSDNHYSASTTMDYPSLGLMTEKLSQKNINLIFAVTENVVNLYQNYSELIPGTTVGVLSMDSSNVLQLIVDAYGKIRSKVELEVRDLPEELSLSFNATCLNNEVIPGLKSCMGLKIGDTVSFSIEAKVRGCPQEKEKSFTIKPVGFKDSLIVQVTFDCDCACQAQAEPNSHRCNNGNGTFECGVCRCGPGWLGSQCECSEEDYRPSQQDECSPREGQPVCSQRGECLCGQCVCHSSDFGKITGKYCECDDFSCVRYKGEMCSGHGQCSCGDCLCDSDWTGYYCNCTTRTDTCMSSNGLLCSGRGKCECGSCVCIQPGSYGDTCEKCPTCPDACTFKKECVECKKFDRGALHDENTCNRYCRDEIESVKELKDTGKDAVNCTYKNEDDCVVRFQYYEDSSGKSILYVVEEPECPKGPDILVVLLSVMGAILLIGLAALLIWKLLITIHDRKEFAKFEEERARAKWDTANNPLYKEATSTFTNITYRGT

Chain of V3 (P06756 31-1048): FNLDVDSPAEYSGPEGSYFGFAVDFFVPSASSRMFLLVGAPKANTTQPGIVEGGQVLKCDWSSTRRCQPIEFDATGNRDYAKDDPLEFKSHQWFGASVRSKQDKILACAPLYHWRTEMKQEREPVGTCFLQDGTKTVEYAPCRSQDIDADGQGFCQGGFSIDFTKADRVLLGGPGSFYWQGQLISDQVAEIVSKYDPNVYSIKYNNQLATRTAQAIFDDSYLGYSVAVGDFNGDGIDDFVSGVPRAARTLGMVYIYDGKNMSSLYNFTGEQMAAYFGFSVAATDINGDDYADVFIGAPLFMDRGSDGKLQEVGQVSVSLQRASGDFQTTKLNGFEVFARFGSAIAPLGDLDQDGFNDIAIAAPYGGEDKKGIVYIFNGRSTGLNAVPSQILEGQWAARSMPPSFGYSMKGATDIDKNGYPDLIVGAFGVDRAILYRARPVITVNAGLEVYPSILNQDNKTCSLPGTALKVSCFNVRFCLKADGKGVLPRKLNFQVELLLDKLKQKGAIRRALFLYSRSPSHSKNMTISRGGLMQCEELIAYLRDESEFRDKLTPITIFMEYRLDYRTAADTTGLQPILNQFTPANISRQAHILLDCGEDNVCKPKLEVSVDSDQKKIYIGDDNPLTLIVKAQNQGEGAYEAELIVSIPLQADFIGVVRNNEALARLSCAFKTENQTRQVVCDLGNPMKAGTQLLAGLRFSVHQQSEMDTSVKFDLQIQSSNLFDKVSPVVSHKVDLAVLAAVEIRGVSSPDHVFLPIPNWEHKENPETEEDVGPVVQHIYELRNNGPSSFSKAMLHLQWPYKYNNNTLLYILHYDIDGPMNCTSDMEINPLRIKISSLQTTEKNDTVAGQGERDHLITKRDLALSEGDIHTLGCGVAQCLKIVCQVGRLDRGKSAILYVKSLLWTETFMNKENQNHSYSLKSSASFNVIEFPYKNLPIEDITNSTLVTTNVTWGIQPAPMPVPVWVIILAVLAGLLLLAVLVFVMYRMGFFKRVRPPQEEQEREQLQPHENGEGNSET
Chain of V3 (P05106 27-788): as the sequence (P05106 27-788) above

{GLY}{ARG}{GLY}{ASP}{SER} [GRGDS]: the affinity entry at V3 and on IIb3 was “intermediate affinity” throughout.
